Assay results as given in ChEMBL document CHEMBL1159025, “A Novel Hydrolyzable Tannin and Related Compounds Isolated from the Leaf Surface of Chrysolepis sempervirens” (1992).
The source made the active and inactive calls. The rule behind the calls is not given here.

Assays:
Staphylococcus aureus = experiment: Antimicrobial activity against Staphylococcus aureus ATCC 6538 at 1000 ug/ml by macro-dilution broth culture method; type: functional, organism-based
Candida albicans = experiment: Antimicrobial activity against Candida albicans ATCC 18804 at 1000 ug/ml by macro-dilution broth culture method; type: functional, organism-based
Pseudomonas aeruginosa = experiment: Antimicrobial activity against Pseudomonas aeruginosa ATCC 25619 at 1000 ug/ml by macro-dilution broth culture method; type: functional, organism-based
HeLa = experiment: Cytotoxicity against human HeLa cells at 100 ug/ml; type: functional

SMILES	Activity (Staphylococcus aureus)	Activity (Candida albicans)	Activity (Pseudomonas aeruginosa)	Activity (HeLa) [%]
O=C1OC[C@H]2OC(=O)c3cc(O)c(O)c(O)c3-c3c(O)c(O)c(O)c4c3C(=O)O[C@H]([C@H]3OC(=O)c5c-4c(O)c(O)c(O)c5[C@H]3O)[C@@H]2OC(=O)c2cc(O)c(O)c(O)c2-c2c1cc(O)c(O)c2O [CASTALAGIN]	inactive	inactive	inactive	70
O=C1OC[C@H]2OC(=O)c3cc(O)c(O)c(O)c3-c3c(O)c(O)c(O)c4c3C(=O)O[C@H]([C@@H](O)[C@@H](O)c3c(O)c(O)c(O)c-4c3C(=O)O)[C@@H]2OC(=O)c2cc(O)c(O)c(O)c2-c2c1cc(O)c(O)c2O [CHINQUAPINIC ACID]	inactive	inactive	inactive	70
O=C1OCC2OC(=O)c3cc(O)c(O)c(O)c3-c3c(O)c(O)c(O)c4c3C(=O)OC(C2OC(=O)c2cc(O)c(O)c(O)c2-c2c1cc(O)c(O)c2O)C1OC(=O)c2c-4c(O)c(O)c(O)c2C1O (configuration not stated) [VESCALAGIN]	inactive	inactive	inactive	70
